Measurements: patent US12275685B2, “Oligo-benzamide analogs and their use in cancer treatment” (Board of Regents, The University of Texas System, priority 2018, dated 2025)

Assays:
Assay type in all cases: cell-based
[1] = system: normal human mammary epithelial cells (HMEC); assay: WST, MTT or CellTiter-Glo assays in HMEC; details: at >1 μM
Source text: (§1) FIGS. 34A-C: Dose response curve of ERX-41 in multiple TNBC. cell lines using WST-1 assays (FIG. 34A) and CellTiter-Glo assays (FIG. 34B). […] Quantification of the number of dead cells over time seen with live cell imaging in MDAMB-231 and HMEC cells is shown.
(§2) To evaluate the generalizability of the inventors' findings, they evaluated ERX-41 in a large number of TNBC and ERa-positive cell lines.

[2] = system: 22 human preclinical TNBC cell line models; assay: WST assay in TNBC cell lines; details: 22 TNBC cell lines, read-out: IC50, WST assays
Source text: as §1, §2

[3] = system: SUM-159 cells with LIPA KO and reconstitution of LIPA; assay: Dose response in SUM-159 LIPA KO cells reconstituted with LIPA constructs
Source text: FIGS. 39A-N: (FIGS. 39A-E) Predicted binding mode of ERX-41 (colored in green) on the human lysosomal acid lipase (LAL, PDB code: 6V7N, LXXLL (SEQ ID NO: 1) domain colored in orange). (FIG. 39F) PDB structure of LAL protein showing relative positions of the catalytic domain (with H274Y MT) and the LXXLL (SEQ ID NO: 1) domain (L242P MT). (FIG. 39G) Evaluation of the effect of ERX-41 and lalistat (known lipase inhibitor) on lipase activity of parental SUM-159 (WT) and SUM-159 cells with LIPA KO. (FIG. 39H) Evaluation of basal lipase activity in parental SUM-159 (WT), SUM-159 cells with LIPA KO (KO), SUM-159 cells with LIPA KO and with reconstitution of either WT LIPA (KO+WT), H274Y MT-LIPA (KO+H274Y), DLXXLL (SEQ ID NO: 2) MT-LIPA (KO+DLXXLL (SEQ ID NO: 2)) or L242P MT-LIPA (KO+L242P). Protein expression of LAL and control vinculin in these cells are shown below (FIG. 391) Cellular lysates from described SUM-159 cells were incubated with biotinylated ERX-11 or biotinylated ERX-41 and then subject to a streptavidin column. Elutants were then evaluated for LIPA pulldown by western blotting. (FIG. 39J) Dose response curve to increasing concentrations of ERX-41 in described SUM-159 cells. (FIGS. 39K-M) Effect of vehicle or 1 μM ERX-41 on induction of UPR genes at the protein level (FIG. 39K) or RNA level (FIGS. 39L-M). […]

[4] = system: triple-negative breast cancer cells (TNBC); assay: Growth inhibition of TNBC cells
Source text: FIGS. 10A & 10B show effects of TK208 against cancer cells.
TNBC is difficult to be treated and currently there are no good drugs available in the market.
In addition, another tris-benzmaide compound TK208 was synthesized and tested against breast cancer and ovarian cancer cell lines (FIGS. 10-15). […] These compounds (e.g., TK41, TK208, TK308 (FIG. 21), TK309 (FIG. 22), TK314, TK315) are extremely potent compounds that inhibit tumor growth and kill breast and ovarian cancer cells and as such, they are superb therapeutic candidates for such diseases.

CC(C)COc1cc(C(=O)Nc2ccc(C(=O)N[C@H]3CC[C@H](C)CC3)cc2OCC(C)C)ccc1NC(=O)c1ccc([N+](=O)[O-])c(OCCO)c1 [TK41]
effect against HMEC [1]: did not have significant effect | IC50 [2]: < 0.5 µM | sensitivity after reconstitution of H274Y MT-LIPA ([3]; KO+H274Y): restored sensitivity | IC50 ([3]; SUM159, KO+WT (WT-LIPA reconstituted)): 0.25 µM | IC50 [4]: < 0.1 µM
